What all share (assay): In vitro activity: M.I.C. on nutrient agar plates, surface inoculation, 24 h at 37°C
What all share (assay type): cell-based

The test system of test [1] is Staphylococcus aureus. As to conditions: S. aureus, Peptid or Antibiotikum alone; for MIC: Staphylococcus aureus, 24 h. An excerpt: (§1) Es wurden konzentrierte Lösungen von Gemischen der Verbindungen der Formel I und dem Antibiotikum in den gewünschten Gewichtsverhältnissen hergestellt, die dann beliebig verdünnt wurden. Aliquote Teile der verdünnten Lösungen wurden mit einem geeigneten Nähragar in Petrischalen gemischt. Zum Vergleich wurden ähnliche Agar-Schalen hergestellt, die ausser dem Nährmedium die Verbindung I bzw. das Antibiotikum alleine enthielten. Nach Oberflächeninokulation mit den Mikroorganismen wurde 24 Stunden bei 37°C aufbewahrt und dann die minimale Hemmkonzentration (M.I.C.) bestimmt und die F.I.C.-Indexe berechnet. Die Ergebnisse unter Verwendung repräsentativer Verbindungen der Formel I, nämlich (1R)-1-(N-Sarcosyl-L-norvalyl-L-norvalylamino)-ethylphosphonsäure, und (1R)-1-(N-Methyl-L-leucyl-L-norvalyl-L-norvalylamino)-ethylphosphonsäure und repräsentativer Antibiotika, nämlich Cephalexin und D-Cycloserin, sind in den folgenden Tabellen I-III zusammengestellt..

Test [2] has as its system Streptococcus faecalis. The following applies: S. faecalis, Peptid or Antibiotikum alone.
From the text: as §1

The test system of test [3] is Streptococcus pyogenes. As to conditions: S. pyogenes, Peptid or Antibiotikum alone.
From the text: as §1

The subject of test [4] is Escherichia coli. The following applies: E. coli, Peptid or Antibiotikum alone.
From the text: as §1

Test [5] has as its system Proteus mirabilis. As to conditions: P. mirabilis, Peptid or Antibiotikum alone.
From the text: as §1

Test [6] has as its system Streptococcus agalactiae. The following applies: S.agalactiae, Peptid or Antibiotikum alone.
From the text: as §1

In test [7] the test system is Streptococcus dysgalactiae. As to conditions: S.dysgalactiae, Peptid or Antibiotikum alone.
From the text: as §1

Converted amounts (≈) assume the structure as drawn. Like-named read-outs stand apart in the source and are kept apart here.

Turning to `CCC[C@H](NC(=O)[C@H](CC(C)C)NC)C(=O)N[C@@H](CCC)C(=O)N[C@@H](C)P(=O)(O)O` [(1R)-1-(N-Methyl-L-leucyl-L-norvalyl-L-norvalylamino)-ethylphosphonsäure], the M.I.C. in test [1] was greater than 64 µg/mL; in test [2], 2 µg/mL; in test [3] it was greater than 64 µg/mL.
Take `CCC[C@H](NC(=O)CNC)C(=O)N[C@@H](CCC)C(=O)N[C@@H](C)P(=O)(O)O` [(1R)-1-(N-Sarcosyl-L-norvalyl-L-norvalylamino)-ethylphosphonsäure]: the M.I.C. in test [4] is 2 µg/mL; in test [5], greater than 128 µg/mL; in test [1] it was greater than 128 µg/mL; in test [6], 45.2 µg/mL; in test [7], 2.8 µg/mL; in test [2], 90.5 µg/mL. Besides, the M.I.C. in test [3] came to 90.5 µg/mL.
`CC1=C(C(=O)O)N2C(=O)[C@@H](NC(=O)[C@H](N)c3ccccc3)[C@H]2SC1` [Cephalexin]: the MIC in test [5] (Proteus mirabilis, 24 h) is 22.6 µg/mL (≈ 65.1 µM); in test [1], 45.2 µg/mL (≈ 130 µM); in test [2] (Enterococcus faecalis, 24 h) it was 128 µg/mL (≈ 368 µM); in test [3] (Streptococcus pyogenes, 24 h), 11.3 µg/mL (≈ 32.5 µM). Moreover, the M.I.C. came to 64 µg/mL in test [1] and 8 µg/mL in test [3].
In the case of `N[C@@H]1CONC1=O` [D-Cycloserin], the MIC in test [4] (Escherichia coli, 24 h) worked out at 32 µg/mL (≈ 313 µM); in test [1] (read-out: M.I.C.) it was 16 µg/mL (≈ 157 µM); in test [6] (Streptococcus agalactiae, 24 h), 90.5 µg/mL (≈ 886 µM); in test [7] (Streptococcus dysgalactiae, 24 h), 128 µg/mL (≈ 1250 µM).
